# Results as given in patent publication US10947188B2, “Small molecule ferroptosis inducers” (THE TRUSTEES OF COLUMBIA UNIVERSITY IN THE CITY OF NEW YORK, priority 2016, dated 2021).
# What was measured:
# BJeLR = experiment: Modulatory profiling: Alamar Blue viability, lethal compound cotreated with death modulator (EC50, AUC); format: cell-based, human; set-up: AUC, modulator BJ.Gd3+ / AUC, modulator BJ.LNAME / AUC, modulator BJ.Lmin / AUC, modulator BJ.3MA / AUC, modulator BJ.ALLN / AUC, modulator BJ.Boc D / AUC, modulator BJ.CHX / AUC, modulator BJ.Co2+ / AUC, modulator BJ.Nec-1 / AUC, modulator BJ.Pepstatin / AUC, modulator BJ.TLCK / AUC, modulator BJ.atoc / AUC, modulator BJ.trolox / AUC, modulator BJ.zVAD: unit not given beside the values; details: BJeLR cells, modulatory profile value (AUC); for AUC, modulator BJ.3MA: lethal compound cotreated with modulator 3MA; for AUC, modulator BJ.ALLN: lethal compound cotreated with modulator ALLN; for AUC, modulator BJ.Boc D: lethal compound cotreated with modulator Boc D; for AUC, modulator BJ.CHX: lethal compound cotreated with modulator CHX; for AUC, modulator BJ.Co2+: lethal compound cotreated with modulator Co2+; for AUC, modulator BJ.DPQ: lethal compound cotreated with modulator DPQ; for AUC, modulator BJ.Gd3+: lethal compound cotreated with modulator Gd3+; for AUC, modulator BJ.LNAME: lethal compound cotreated with modulator LNAME; for AUC, modulator BJ.Lmin: lethal compound cotreated with modulator Lmin; for AUC, modulator BJ.NAD+: lethal compound cotreated with modulator NAD+; for AUC, modulator BJ.NMMA: lethal compound cotreated with modulator NMMA; for AUC, modulator BJ.Nec-1: lethal compound cotreated with modulator Nec-1; for AUC, modulator BJ.Pepstatin: lethal compound cotreated with modulator Pepstatin; for AUC, modulator BJ.TLCK: lethal compound cotreated with modulator TLCK; for AUC, modulator BJ.atoc: lethal compound cotreated with modulator atoc; for AUC, modulator BJ.trolox: lethal compound cotreated with modulator trolox; for AUC, modulator BJ.zVAD: lethal compound cotreated with modulator zVAD; on AUC, modulator BJ.3MA: reference of the scale not given here; on AUC, modulator BJ.ALLN: reference of the scale not given here; on AUC, modulator BJ.Boc D: reference of the scale not given here; on AUC, modulator BJ.CHX: reference of the scale not given here; on AUC, modulator BJ.Co2+: reference of the scale not given here; on AUC, modulator BJ.DPQ: reference of the scale not given here; on AUC, modulator BJ.Gd3+: reference of the scale not given here; on AUC, modulator BJ.LNAME: reference of the scale not given here; on AUC, modulator BJ.NAD+: reference of the scale not given here; on AUC, modulator BJ.NMMA: reference of the scale not given here; on AUC, modulator BJ.Nec-1: reference of the scale not given here; on AUC, modulator BJ.Pepstatin: reference of the scale not given here; on AUC, modulator BJ.TLCK: reference of the scale not given here
# HT-1080 = experiment: as above; format: cell-based; set-up: AUC, modulator HT.3MA / AUC, modulator HT.ALLN / AUC HT.ATA / AUC HT.ActD / AUC HT.BHA / AUC HT.BHT / AUC HT.BocD / AUC HT.CHX / AUC HT.Co2+ / AUC HT.DPQ / AUC HT.EGTA / AUC HT.Lmim / AUC HT.NAD+ / AUC HT.Nec-1 / AUC HT.SP600125 / AUC HT.TLCK / AUC HT.U0126: unit not given beside the values; details: for AUC, modulator HT.3MA: lethal compound cotreated with modulator 3MA; on AUC HT.BHA: reference of the scale not given here; on AUC HT.EGTA: reference of the scale not given here
# [1] = HT-1080 cells, modulatory profile value (AUC)
structure (smiles),measurement,setting,value
O=[N+]([O-])c1ccc(O)c([N+](=O)[O-])c1,"AUC, modulator BJ.3MA",BJeLR,−0.008182
same,"AUC, modulator BJ.ALLN",BJeLR,−0.03838
same,"AUC, modulator BJ.Boc D",BJeLR,−0.01714
same,"AUC, modulator BJ.CHX",BJeLR,0.189
same,"AUC, modulator BJ.Co2+",BJeLR,−0.008316
same,"AUC, modulator BJ.DPQ",BJeLR,−0.03251
same,"AUC, modulator BJ.Gd3+",BJeLR,−0.01413
same,"AUC, modulator BJ.LNAME",BJeLR,−0.0202
same,"AUC, modulator BJ.Lmin",BJeLR,−0.0205
same,"AUC, modulator BJ.NAD+",BJeLR,0.06986
same,"AUC, modulator BJ.NMMA",BJeLR,−0.02735
same,"AUC, modulator BJ.Nec-1",BJeLR,−0.001955
same,"AUC, modulator BJ.Pepstatin",BJeLR,0.05394
same,"AUC, modulator BJ.TLCK",BJeLR,−0.0426
same,"AUC, modulator BJ.atoc",BJeLR,0.02318
same,"AUC, modulator BJ.trolox",BJeLR,0.009957
same,"AUC, modulator BJ.zVAD",BJeLR,−0.0001198
same,"AUC, modulator HT.3MA",HT-1080; [1],−0.1332
CN(C)CC(O)Cn1c2ccc(Cl)cc2c2cc(Cl)ccc21 (stereo not shown) [CIL5],"AUC, modulator BJ.3MA",BJeLR,0.08524
same,"AUC, modulator BJ.ALLN",BJeLR,−0.1163
same,"AUC, modulator BJ.Boc D",BJeLR,−0.07609
same,"AUC, modulator BJ.CHX",BJeLR,−0.0324
same,"AUC, modulator BJ.Co2+",BJeLR,0.04705
same,"AUC, modulator BJ.DPQ",BJeLR,0.002876
same,"AUC, modulator BJ.Gd3+",BJeLR,0.01146
same,"AUC, modulator BJ.LNAME",BJeLR,−0.009787
same,"AUC, modulator BJ.Lmin/NAD+",BJeLR; lethal compound cotreated with modulator Lmin/NAD+,−0.01738
same,"AUC, modulator BJ.Lmin",BJeLR,−0.03698
same,"AUC, modulator BJ.NAD+",BJeLR,2.99E−05
same,"AUC, modulator BJ.NMMA",BJeLR,−0.0271
same,"AUC, modulator BJ.Nec-1",BJeLR,0.03195
same,"AUC, modulator BJ.Pepstatin",BJeLR,0.06042
same,"AUC, modulator BJ.TLCK",BJeLR,−0.02603
same,"AUC, modulator BJ.atoc",BJeLR,−0.00271
same,"AUC, modulator BJ.trolox",BJeLR,0.0183
same,"AUC, modulator BJ.zVAD",BJeLR,−0.02054
same,AUC HT.ATA,"HT-1080; HT-1080, modulator ATA",0.0005893
same,AUC HT.ActD,"HT-1080; HT-1080, modulator ActD",−0.00753
same,AUC HT.BHA,"HT-1080; HT-1080, modulator BHA",−0.08502
same,AUC HT.BHT,"HT-1080; HT-1080, modulator BHT",−0.09917
same,AUC HT.BocD,"HT-1080; HT-1080, modulator BocD",0.01524
same,AUC HT.CHX,"HT-1080; HT-1080, modulator CHX",0.09726
same,AUC HT.Co2+,"HT-1080; HT-1080, modulator Co2+",0.08698
same,AUC HT.CspA,"HT-1080; HT-1080, modulator CspA",−0.02159
same,AUC HT.DPQ,"HT-1080; HT-1080, modulator DPQ",0.009641
same,AUC HT.EGTA,"HT-1080; HT-1080, modulator EGTA",−0.009215
same,AUC HT.Gd3+,"HT-1080; HT-1080, modulator Gd3+",−0.0257
same,AUC HT.LNAME,"HT-1080; HT-1080, modulator LNAME",0.02263
same,AUC HT.Lmim,"HT-1080; HT-1080, modulator Lmim",0.003574
same,AUC HT.NAD+,"HT-1080; HT-1080, modulator NAD+",0.03421
same,AUC HT.NMMA,"HT-1080; HT-1080, modulator NMMA",−0.003405
same,AUC HT.Nec-1,"HT-1080; HT-1080, modulator Nec-1",0.003351
same,AUC HT.Pepstatin,"HT-1080; HT-1080, modulator Pepstatin",0.01965
same,AUC HT.SP600125,"HT-1080; HT-1080, modulator SP600125",−0.02149
same,AUC HT.TLCK,"HT-1080; HT-1080, modulator TLCK",−0.004057
same,AUC HT.U0126,"HT-1080; HT-1080, modulator U0126",−0.02944
same,HT.atoc (AUC),"HT-1080; HT-1080, modulator atoc",0.03603
same,HT.bCarotene (AUC),"HT-1080; HT-1080, modulator bCarotene",−0.01403
same,HT.deferox (AUC),"HT-1080; HT-1080, modulator deferox",−0.01025
same,HT.digoxin (AUC),"HT-1080; HT-1080, modulator digoxin",0.005534
same,HT.trolox (AUC),"HT-1080; HT-1080, modulator trolox",0.01247
same,HT.zVAD (AUC),"HT-1080; HT-1080, modulator zVAD",−0.01378
same,"AUC, modulator HT.3MA",HT-1080; [1],0.0132
same,"AUC, modulator HT.ALLN","HT-1080; HT-1080 cells, lethal compound cotreated with modulator ALLN, modulatory profile value (AUC)",0.07446
